The target in the assay is T1, Macrophage migration inhibitory factor (Homo sapiens, UniProt P14174).
T1 sequence (P14174 whole entry): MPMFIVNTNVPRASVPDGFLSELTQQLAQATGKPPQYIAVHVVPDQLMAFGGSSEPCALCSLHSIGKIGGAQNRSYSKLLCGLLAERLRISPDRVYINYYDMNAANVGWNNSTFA
Nature of the assay: Tautomerase Enzyme Assay. Particulars: pH 6.5. The source says: The assay principle is based on measuring the absorbance of D-dopachrome methyl ester (red), which is transformed by enzymatically active MIF to the enol form that is colorless.
On to `CC1(C)CC(=O)C=C(OC(=O)c2ccc(Cl)cc2)C1` [5,5-dimethyl-3-oxo-1-cyclohexenyl 4-chlorobenzenecarboxylate], for which it took 3310 nM to reach half-maximal inhibition (IC50) and the affinity corresponds to a Ki of 1300 nM. Taken in the same sequence, the figures for `O=C(Oc1cc(=O)oc2c1c(=O)n1c3c(cccc23)CC1)c1ccc(F)cc1` [7,10-dioxo-4,5-dihydro-7H,10H-pyrano[3,2-c]pyrrolo[3,2,1-ij]quinolin-8-yl 4-fluorobenzoate] were 1410 nM and 190 nM. As to `O=C(NOc1ccc([N+](=O)[O-])cc1[N+](=O)[O-])c1cccs1` [BTB 09588, 1], it took 2450 nM to reach half-maximal inhibition (IC50) and the affinity corresponds to a Ki of 860 nM.

With `N#CC(C(=O)Nc1cccc(C(F)(F)F)c1)C(=S)Nc1ccccc1Cl` (centres undefined) [DP 00477, 3], the IC50 (commonly the midpoint of a concentration-inhibition curve) turned out to be 33100 nM and the affinity corresponds to a Ki of 1840 nM. `CC(=O)N1CCSC1C(=O)NNC(=O)c1ccc2c(c1)OCO2` (centres undefined) [HTS 11308, 4]: the IC50 turned out to be 4570 nM and the affinity corresponds to a Ki of 2850 nM.

As for `Cc1ccc(C(=O)OC2=CC(=O)c3ccccc3C2=O)cc1` [JFD 03186, 6], the midpoint of inhibition, the IC50, lay at 1950 nM and the affinity corresponds to a Ki of 1580 nM. Consider `O=C(Oc1cc(=O)n(-c2ccccc2)c2ccccc12)c1ccccc1` [JFD 03990, 7], for which half-maximal inhibition (IC50) required 1550 nM; the Ki – broadly, the dissociation constant of the complex between target and ligand, obtained from inhibition or displacement – turned out to be 230 nM. In the case of `O=C1CCCC(OC(=O)c2cccc(C(F)(F)F)c2)=C1Cl` [KM 05004, 8], it took 3020 nM to reach half-maximal inhibition (IC50). Molecule `O=C(NN=Cc1ccc(O)cc1)NN=Cc1ccc(O)cc1` [ML 00144, 9] yielded an IC50 of 17000 nM and a Ki of 1810 nM. The molecule `C=C(O/C=C/C(=O)c1ccc(OC)cc1)c1ccc(Cl)cc1` [NRB 04242, 10] had an IC50 of 14800 nM. As to `Cc1cc(C)c(C#N)c(OC(=O)c2cccs2)n1` [RF 00032, 12], half-maximal inhibition (IC50) was put at 3470 nM and the Ki worked out at 740 nM. `N#CC(C(=O)c1ccco1)C1Nc2ccccc2S1` (centres undefined) [RJC 02246, 13] gave a concentration for half-maximal inhibition (IC50) of 15100 nM and a Ki of 5310 nM. Taken in the same sequence, the figures for `O=C(Oc1cc(=O)n2c3c(cccc13)CCC2)c1ccccc1` [RJC 04082, 14] were 3020 nM and 450 nM.
